Reference: ChEMBL document CHEMBL4000244, “Probing A-form DNA: A fluorescent aminosugar probe and dual recognition by anthraquinone-neomycin conjugates” (Bioorg Med Chem, 2017)
Calls of active or inactive are those of the source. No cut-off for these calls is given here.

Experiments:
[1] = Displacement of fluorescein-neomycin from d(G4C4)2 DNA at 200 nM by fluorescence assay
[2] = Displacement of fluorescein-neomycin from d(G4C4)2 DNA by Scatchard plot analysis
[3] = Displacement of thiazole orange from d(G4C4)2 DNA by Scatchard plot analysis
[4] = Binding affinity to d(G4C4)2 DNA major groove assessed as stabilization of A-from DNA conformation at 0.05 to 1.5 equiv after 30 mins by fluorescein-neomycin probe based CD spectroscopic method
[5] = Binding affinity to d(G4C4)2 DNA major groove assessed as stabilization of A-from DNA conformation at 0.25 to 1.5 equiv after 30 mins by thiazole orange probe based CD spectroscopic method
[6] = Binding affinity to d(G4C4)2 DNA major groove assessed as stabilization of A-from DNA conformation by measuring induction of sharper band at 265 nanometer at drug:DNA molar ratio of 1:1 after 30 mins by CD spectroscopic method
[7] = Displacement of fluorescein-neomycin from d(G4C4)2 DNA major groove by fluorescence titration assay
[8] = Binding affinity to d(G4C4)2 DNA major groove assessed as stabilization of A-from DNA conformation at drug:DNA molar ratio of 4:1 after 30 mins by CD spectroscopic method
[9] = Binding affinity to d(G4C4)2 DNA major groove assessed as stabilization of A-from DNA conformation after 30 mins by CD spectroscopic method

| SMILES | inhibition [1] | Ka [2] | Ka [3] | further results |
| --- | --- | --- | --- | --- |
| NCC1O[C@H](O[C@H]2[C@@H](O)[C@H](O[C@@H]3[C@@H](O)[C@H](N)C[C@H](N)[C@H]3O[C@H]3O[C@H](CN)[C@@H](O)[C@H](O)[C@H]3N)O[C@@H]2CSCCNC(=S)Nc2ccc3c(c2)C(=O)c2ccccc2C3=O)[C@H](N)[C@@H](O)[C@@H]1O (some centres undefined) | Active |  |  |  |
| NCC1O[C@H](O[C@H]2[C@@H](O)[C@H](O[C@@H]3[C@@H](O)[C@H](N)C[C@H](N)[C@H]3O[C@H]3O[C@H](CN)[C@@H](O)[C@H](O)[C@H]3N)O[C@@H]2CSCCNC(=S)NCCCOCCCCOCCCNC(=S)NCc2ccc3c(c2)C(=O)c2ccccc2C3=O)[C@H](N)[C@@H](O)[C@@H]1O (some centres undefined) | Active | 4.02 ×10⁶ /M | 18.4 ×10⁶ /M |  |
| NCC1O[C@H](O[C@H]2[C@@H](O)[C@H](O[C@@H]3[C@@H](O)[C@H](N)C[C@H](N)[C@H]3O[C@H]3O[C@H](CN)[C@@H](O)[C@H](O)[C@H]3N)O[C@@H]2CSCCNC(=S)NCc2ccc3c(c2)C(=O)c2ccccc2C3=O)[C@H](N)[C@@H](O)[C@@H]1O (some centres undefined) | Active | 25.3 ×10⁶ /M | 3.62 ×10⁶ /M | Activity [4]: Active; Activity [5]: Active |
| NCC1O[C@H](O[C@H]2[C@@H](O)[C@H](O[C@H]3[C@H](O)[C@@H](N)C[C@@H](N)[C@@H]3O[C@H]3O[C@H](CN)[C@@H](O)[C@H](O)[C@H]3N)O[C@@H]2CO)[C@H](N)[C@@H](O)[C@@H]1O (some centres undefined) | inactive |  |  | Activity [6]: Active |
| NCC1O[C@H](O[C@H]2[C@@H](O)[C@H](O[C@@H]3[C@@H](O)[C@H](N)C[C@H](N)[C@H]3O[C@H]3O[C@H](CN)[C@@H](O)[C@H](O)[C@H]3N)O[C@@H]2CNC(=S)NCc2ccc3c(c2)C(=O)c2ccccc2C3=O)[C@H](N)[C@@H](O)[C@@H]1O (some centres undefined) | Active | 14.1 ×10⁶ /M | 5.27 ×10⁶ /M | IC50 [7]: 748 nM |
| O=C1c2ccccc2C(=O)c2ccccc21 | inactive |  |  |  |
| CN1/C(=C/c2cc[n+](C)c3ccccc23)Sc2ccccc21 |  |  |  | Activity [8]: inactive |
| NCC1O[C@H](O[C@H]2[C@@H](O)[C@H](O[C@@H]3[C@@H](O)[C@H](N)C[C@H](N)[C@H]3O[C@H]3O[C@H](CN)[C@@H](O)[C@H](O)[C@H]3N)O[C@@H]2CNC(=S)NCCCCCCCCCCNC(=S)NCc2ccc3c(c2)C(=O)c2ccccc2C3=O)[C@H](N)[C@@H](O)[C@@H]1O (some centres undefined) | Active |  |  |  |
| NCC1O[C@H](O[C@H]2[C@@H](O)[C@H](O[C@@H]3[C@@H](O)[C@H](N)C[C@H](N)[C@H]3O[C@H]3O[C@H](CN)[C@@H](O)[C@H](O)[C@H]3N)O[C@@H]2CNC(=S)Nc2ccc3c(c2)C(=O)c2ccccc2C3=O)[C@H](N)[C@@H](O)[C@@H]1O (some centres undefined) | Active |  |  |  |
| NCC1O[C@H](O[C@H]2[C@@H](O)[C@H](O[C@@H]3[C@@H](O)[C@H](N)C[C@H](N)[C@H]3O[C@H]3O[C@H](CN)[C@@H](O)[C@H](O)[C@H]3N)O[C@@H]2CNC(=S)NCCCOCCCCOCCCNC(=S)NCc2ccc3c(c2)C(=O)c2ccccc2C3=O)[C@H](N)[C@@H](O)[C@@H]1O (some centres undefined) | Active | 8.83 ×10⁶ /M | 11.8 ×10⁶ /M |  |
| OCC(F)(F)F |  |  |  | Activity [9]: Active |
| NCC1O[C@H](O[C@H]2[C@@H](O)[C@H](O[C@@H]3[C@@H](O)[C@H](N)C[C@H](N)[C@H]3O[C@H]3O[C@H](CN)[C@@H](O)[C@H](O)[C@H]3N)O[C@@H]2CSCCNC(=S)NCCCCCCCCCCNC(=S)NCc2ccc3c(c2)C(=O)c2ccccc2C3=O)[C@H](N)[C@@H](O)[C@@H]1O (some centres undefined) | Active |  |  |  |
| NCC1O[C@H](O[C@H]2[C@@H](O)[C@H](O[C@@H]3[C@@H](O)[C@H](N)C[C@H](N)[C@H]3O[C@H]3O[C@H](CN)[C@@H](O)[C@H](O)[C@H]3N)O[C@@H]2CNC(=S)NCCNC(=S)NCc2ccc3c(c2)C(=O)c2ccccc2C3=O)[C@H](N)[C@@H](O)[C@@H]1O (some centres undefined) | Active | 4.88 ×10⁶ /M | 3.85 ×10⁶ /M |  |
| NCC1O[C@H](O[C@H]2[C@@H](O)[C@H](O[C@@H]3[C@@H](O)[C@H](N)C[C@H](N)[C@H]3O[C@H]3O[C@H](CN)[C@@H](O)[C@H](O)[C@H]3N)O[C@@H]2CSCCNC(=S)NCCNC(=S)NCc2ccc3c(c2)C(=O)c2ccccc2C3=O)[C@H](N)[C@@H](O)[C@@H]1O (some centres undefined) | Active | 2.28 ×10⁶ /M | 3.09 ×10⁶ /M |  |
| NCC1O[C@H](O[C@H]2[C@@H](O)[C@H](O[C@@H]3[C@@H](O)[C@H](N)C[C@H](N)[C@H]3O[C@H]3O[C@H](CN)[C@@H](O)[C@H](O)[C@H]3N)O[C@@H]2CNC(=S)NCCCNC(=S)NCc2ccc3c(c2)C(=O)c2ccccc2C3=O)[C@H](N)[C@@H](O)[C@@H]1O (some centres undefined) | Active |  |  |  |
| NCC1O[C@H](O[C@H]2[C@@H](O)[C@H](O[C@@H]3[C@@H](O)[C@H](N)C[C@H](N)[C@H]3O[C@H]3O[C@H](CN)[C@@H](O)[C@H](O)[C@H]3N)O[C@@H]2CSCCNC(=S)NCCCNC(=S)NCc2ccc3c(c2)C(=O)c2ccccc2C3=O)[C@H](N)[C@@H](O)[C@@H]1O (some centres undefined) | Active |  |  |  |
| NCCCNCCCCNCCCN |  |  |  | Activity [6]: Active |
| CCO |  |  |  | Activity [9]: Active |
